Structures are written as SMILES. pIC50: −log10 of the molar value.

The target in one test is T1, Human full-length Hsp90 (Homo sapiens, UniProt P08238).
T1 construct: E. coli expressed human full-length HSP90 protein, purified >95%; made in house; host or cells: E. coli
T1 sequence (P08238 whole entry): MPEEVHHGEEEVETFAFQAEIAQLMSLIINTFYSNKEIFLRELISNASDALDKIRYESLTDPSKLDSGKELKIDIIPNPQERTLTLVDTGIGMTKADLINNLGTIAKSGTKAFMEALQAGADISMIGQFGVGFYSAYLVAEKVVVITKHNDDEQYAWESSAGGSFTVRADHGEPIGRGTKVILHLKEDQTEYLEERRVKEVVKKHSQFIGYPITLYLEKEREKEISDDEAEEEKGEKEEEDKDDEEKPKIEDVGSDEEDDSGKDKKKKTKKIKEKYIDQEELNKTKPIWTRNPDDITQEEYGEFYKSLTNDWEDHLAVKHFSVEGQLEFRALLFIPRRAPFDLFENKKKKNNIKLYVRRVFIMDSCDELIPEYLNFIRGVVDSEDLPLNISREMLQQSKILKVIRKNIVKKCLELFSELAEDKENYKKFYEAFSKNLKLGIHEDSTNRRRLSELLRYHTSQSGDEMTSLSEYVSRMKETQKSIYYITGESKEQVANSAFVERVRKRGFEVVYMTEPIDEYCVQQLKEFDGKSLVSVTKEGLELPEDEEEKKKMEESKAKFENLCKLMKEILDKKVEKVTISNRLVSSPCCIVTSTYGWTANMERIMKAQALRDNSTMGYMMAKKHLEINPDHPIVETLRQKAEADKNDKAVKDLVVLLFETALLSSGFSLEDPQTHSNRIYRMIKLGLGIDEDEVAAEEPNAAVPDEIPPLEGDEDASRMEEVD
Put plainly: Fluorescence polarization assay (competitive binding to HSP90, probe RBT0045864-FAM).
Details: not given
The protocol:
Fluorescence Polarization Assay
Fluorescence polarization {also known as fluorescence anisotropy} measures the rotation of a fluorescing species in solution, where the larger molecule the more polarized the fluorescence emission. When the fluorophore is excited with polarized light, the emitted light is also polarized. The molecular size is proportional to the polarization of the fluorescence emission.
The fluoroscein-labelled probe—RBT0045864-FAM—
Test compound is added to the assay plate, left to equilibrate and the anisotropy measured again. Any change in anisotropy is due to competitive binding of compound to HSP90, thereby releasing probe.
Stored at room temperature. • 3) BSA (bovine serum albumen) 10 mg/ml (New England Biolabs #B9001S) • 4) 20 mM probe in 100% DMSO stock concentration. Stored in the dark at RT. Working concentration is 200 nM diluted in AR water and stored at 4° C. […] Protocol • 1) Add 100 μl 1× buffer to wells 11A and 12A (=FP BLNK) • 2) Prepare assay mix—all reagents are kept on ice with a lid on the bucket as the probe is light-sensitive.
This gives 2.5 mM {50×} stock cpd—assuming cpds 20 mM. • 4) Repeat for wells A2 to A10. Control in columns 11 and 12. • 5) Transfer 5 μl from row A to row B—not column 12. Mix well. • 6) Transfer 5 μl from row B to row C. […] Add 2 μl of 100 mM standard cpd to wells B12-H12 {is positive control} • 13) The Z′ factor is calculated from zero controls and positive wells.
A general note: Fluorescence polarisation rises when a labelled molecule tumbles more slowly, as on binding a larger partner.
In the case of `CCNC(=O)c1cc2c(-c3ccccc3)nc(N)nc2s1` [Example 43, 2-Amino-4-phenyl-thieno[2,3-d]pyrimidine-6-carboxylic acid ethylamide], the negative logarithm of the IC50 (pIC50) (commonly the negative decadic logarithm of the IC50, by convention in mol/L) is above 5.00.

The same test, now with this note: fluorescence polarization assay, activity range; read-out: Hsp90 FP IC50.
With `CCNC(=O)c1cc2c(-c3cc(C=O)ccc3C)nc(N)nc2s1` [Example 170], the pIC50 is above 5.00.

Turning to `CCNC(=O)c1cc2c(-c3cc(OCC4CCCO4)c(Cl)cc3Cl)nc(N)nc2s1` (centres unmarked) [Example 262], the pIC50 is above 5.00. On the same count and under the same terms, in the case of `CCOC(=O)c1cc2c(C=Cc3ccccc3)nc(N)nc2s1` [275 Step 1] it was above 5.00; in that of `CCOC(=O)c1cc2c(/C=C/c3ccc(Cl)cc3)nc(N)nc2s1` [Example 281], above 5.00. Consider `CCOC(=O)c1cc2c(-c3ccc(Cl)cc3C)nc(N)nc2s1` [Example 3], for which the pIC50 was above 5.00. Take `CCOC(=O)c1cc2c(-c3ccc(C#N)cc3C)nc(N)nc2s1` [Example 32]: the pIC50 was above 5.00. Still for that read-out and setting: for `CCOC(=O)c1cc2c(-c3ccccc3Cl)nc(N)nc2s1` [Example 9] the value was above 5.00; for `CCOC(=O)c1cc2c(-c3cc(OCc4ccccc4)c(Cl)cc3Cl)nc(N)nc2s1` [Example 239], above 5.00; for `COC(=O)c1cc2c(N(C)Cc3ccccc3)nc(N)nc2s1` [Example 23], below 5.00. As for `CCOC(=O)c1cc2c(C(=O)c3ccc(F)cc3)nc(N)nc2s1` [Example 305], the pIC50 was above 5.00. Turning to `Nc1nc(-c2ccc(Cl)cc2Cl)c2cc(C(=O)NCc3ccc4c(c3)OCO4)sc2n1` [Example 119], the pIC50 is above 5.00.

In the case of `CCOC(=O)c1cc2c(-c3cc(CNCCN4CCOCC4)ccc3C)nc(N)nc2s1` [Example 198], the pIC50 is above 5.00. For `CN(C)CCNC(=O)c1cc2c(-c3ccccc3)nc(N)nc2s1` [Example 44], the pIC50 is above 5.00. As for `Cc1ccc(-c2nc(N)nc3sc(S(=O)(=O)NC4CC4)cc23)c(C)c1` [Example 274, 2-Amino-4-(2,4-dimethyl-phenyl)-thieno[2,3-d]pyrimidine-6-sulfonic acid cyclopropylamide], the pIC50 was above 5.00. Turning to `Cc1ccc(-c2nc(N)nc3sc(C(=O)NC(C)C)cc23)c(C)c1` [Example 81], the pIC50 was above 5.00.

Turning to `CCOC(=O)c1cc2c(C(=O)c3ccc(Cl)cc3)nc(N)nc2s1` [Example 295, 2-Amino-4-(4-chloro-benzoyl)-thieno[2,3-d]pyrimidine-6-carboxylic acid ethyl ester], the pIC50 was above 5.00. The same measure, in the same setting: for `CCOC(=O)c1cc2c(C(C#N)c3ccccc3)nc(N)nc2s1` (centres unmarked) [Example 317] the value was above 5.00; for `CCOC(=O)c1cc2c(C(=O)c3cccc(F)c3)nc(N)nc2s1` [Example 303], above 5.00; for `Nc1nc(-c2ccc(Cl)cc2Cl)c2cc(C(=O)NCCCS(=O)(=O)O)sc2n1` [Example 144], above 5.00.

As for `CCOC(=O)c1cc2c(C(=O)c3ccc(Cl)c(Cl)c3)nc(N)nc2s1` [Example 309], the pIC50 is above 5.00. Consider `CCOC(=O)c1cc2c(C(=O)c3ccc(OC)c(F)c3)nc(N)nc2s1` [Example 314], for which the pIC50 is above 5.00. The same measure, in the same setting: for `CCOC(=O)c1cc2c(C(=O)c3ccc(Cl)c(F)c3)nc(N)nc2s1` [Example 313] the value was above 5.00; for `COC(=O)c1cc2c(NCc3ccccc3)nc(N)nc2s1` [Example 22, 2-Amino-4-benzylamino-thieno[2,3-d]pyrimidine-6-carboxylic acid methyl ester], below 5.00. Take `CCNC(=O)c1cc2c(-c3cc(CNCc4cccs4)ccc3C)nc(N)nc2s1` [Example 201]: the pIC50 is above 5.00.

`CCOC(=O)c1cc2c(C(=O)c3ccc(OC)c(OC)c3)nc(N)nc2s1` [Example 310]: the pIC50 is above 5.00. Take `CCNC(=O)c1ccc(C)c(-c2nc(N)nc3sc(C(=O)NCC)cc23)c1` [Example 180]: the pIC50 is above 5.00. In the case of `CN(C)CCCNC(=O)c1cc2c(-c3ccc(Cl)cc3Cl)nc(N)nc2s1` [Example 102], the pIC50 was above 5.00. Regarding `Nc1nc(-c2ccc(Cl)cc2Cl)c2cc(C(=O)Nc3cc[nH]n3)sc2n1` [Example 143], the pIC50 is above 5.00. As to `CCNC(=O)c1cc2c(-c3cc(C)c(Br)cc3C)nc(N)nc2s1` [Example 149], the pIC50 was above 5.00. For `CCOC(=O)c1cc2c(-c3cc4ccccc4o3)nc(N)nc2s1` [Example 13], the pIC50 was below 5.00. The same measure, in the same setting: for `CCNC(=O)c1cc2c(-c3ccc(CC)cc3Cl)nc(N)nc2s1` [Example 177] the value was above 5.00; for `CCOC(=O)c1cc2c(-c3cncc4ccccc34)nc(N)nc2s1` [Example 293], above 5.00. In the case of `Nc1nc(-c2ccccc2)c2cc(C(=O)NCCc3ccccc3)sc2n1` [Example 49], the pIC50 is below 5.00. For `CCNC(=O)c1cc2c(-c3cc(CNCc4ccccc4)c(C)cc3C)nc(N)nc2s1` [Example 232], the negative-log IC50 (pIC50) was above 5.00.

In the case of `CCOC(=O)c1cc2c(-c3ccc(C#N)cc3)nc(N)nc2s1` [Example 16], the pIC50 was above 5.00. Take `Nc1nc(-c2ccc(Cl)cc2Cl)c2cc(C(=O)Nc3ccc(Cl)cc3)sc2n1` [Example 111]: the pIC50 is above 5.00.

For `Cc1ccc(-c2nc(N)nc3sc(C(=O)NCCO)cc23)c(C)c1` [Example 82], the pIC50 was above 5.00. Still for that read-out and setting: in the case of `CCOC(=O)c1cc2c(-c3cc(Cl)ccc3Cl)nc(N)nc2s1` [Example 106] it was below 5.00. As for `CCOC(=O)c1cc2c(C(=O)c3ccccc3C)nc(N)nc2s1` [Example 311], the pIC50 was above 5.00.

For `CC(C)NC(=O)c1cc2c(-c3ccc(Cl)cc3Cl)nc(N)nc2s1` [Example 133], the pIC50 is above 5.00. Consider `CCN1CCCC1CNC(=O)c1cc2c(-c3ccc(Cl)cc3Cl)nc(N)nc2s1` (centres unmarked) [Example 129], for which the pIC50 was above 5.00.

Take `CCOC(=O)c1cc2c(-c3ccc(OCC#N)cc3C)nc(N)nc2s1` [Example 188]: the pIC50 was above 5.00. For `CCNC(=O)c1cc2c(-c3cc(OCC(=O)N4CCOCC4)c(Cl)cc3Cl)nc(N)nc2s1` [Example 271], the pIC50 was above 5.00. For `CCOC(=O)c1cc2c(-c3ccccn3)nc(N)nc2s1` [Example 104], the pIC50 was below 5.00. `CCOC(=O)c1cc2c(NC(C)(C)c3ccccc3)nc(N)nc2s1` [Example 29]: the negative logarithm of the IC50 (pIC50) was below 5.00. For the molecule `CCOC(=O)CSc1nc(N)nc2sc(C(=O)OCC)cc12` [Example 20], the pIC50 is below 5.00. Consider `CCOC(=O)c1cc2c(-c3c(Cl)cccc3OC)nc(N)nc2s1` [Example 147], for which the pIC50 is below 5.00.

With `CCOC(=O)c1sc2nc(N)nc(-c3ccccc3)c2c1N` [Example 74, 2,5-Diamino-4-phenyl-thieno[2,3-d]pyrimidine-6-carboxylic acid ethyl ester], the pIC50 is below 5.00. As to `CCNC(=O)c1cc2c(OCc3ccccc3)nc(N)nc2s1` [Example 294], the pIC50 was below 5.00.

On to `CCCOc1ccc(-c2nc(N)nc3sc(C(=O)OCC)cc23)c(C)c1` [Example 185, 2-Amino-4-(2-methyl-4-propoxy-phenyl)-thieno[2,3-d]pyrimidine-6-carboxylic acid ethyl ester], for which the pIC50 is above 5.00.

`Cc1ccc(-c2nc(N)nc3sc(C(=O)NCCc4c[nH]cn4)cc23)c(C)c1` [Example 86]: the pIC50 was above 5.00. Turning to `CCCCOc1ccc(-c2nc(N)nc3sc(C(=O)OCC)cc23)c(C)c1` [Example 186], the pIC50 is below 5.00.

For the origin of these results see patent US8642594B2, “Substituted thieno[2,3-d]pyrimidines as HSP90 inhibitors” (Vernalis (R&D) Limited, priority 2003, dated 2014).
